In ChEMBL document CHEMBL1125749, “trans-3-n-propyl-L-proline is a highly favorable, conformationally restricted replacement for methionine in the C-terminal tetrapeptide of cholecystokinin. Stereoselective synthesis of 3-allyl- and 3-n-propyl-L-proline derivatives from 4-hydroxy-L-proline” (J Med Chem, 1991):
Square brackets hold non-standard residues; d marks the D form. Peptide text beside a SMILES is read from it. * marks the point of attachment. Nle = CCCC[C@H](N)C(=O)O; Boc = CC(C)(C)OC(=O)*

target: T1, Cholecystokinin receptor type A (Cavia porcellus, UniProt Q63931); assay: Compound was tested for its inhibitory activity in pancreatic cholecystokinin type A receptor in guinea pig
T1 sequence (Q63931 whole entry): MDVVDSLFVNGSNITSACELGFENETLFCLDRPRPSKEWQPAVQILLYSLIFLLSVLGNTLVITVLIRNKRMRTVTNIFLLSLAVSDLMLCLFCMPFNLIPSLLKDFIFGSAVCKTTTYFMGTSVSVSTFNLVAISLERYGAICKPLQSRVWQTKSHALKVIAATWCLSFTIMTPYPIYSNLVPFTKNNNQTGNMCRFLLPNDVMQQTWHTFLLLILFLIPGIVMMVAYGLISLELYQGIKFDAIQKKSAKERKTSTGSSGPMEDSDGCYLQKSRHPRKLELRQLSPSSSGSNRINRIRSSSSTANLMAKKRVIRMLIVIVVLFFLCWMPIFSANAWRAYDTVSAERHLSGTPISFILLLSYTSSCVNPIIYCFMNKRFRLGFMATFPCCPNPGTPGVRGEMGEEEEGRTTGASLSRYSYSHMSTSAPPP

`CCC[C@@H]1CCN(C(=O)[C@H](Cc2c[nH]c3ccccc23)NC(=O)OC(C)(C)C)[C@@H]1C(=O)N[C@@H](CC(=O)O)C(=O)N[C@@H](Cc1ccccc1)C(N)=O` and `CC(C)(C)OC(=O)N[C@@H](Cc1c[nH]c2ccccc12)C(=O)N1CCC[C@H]1C(=O)N[C@@H](CC(=O)O)C(=O)N[C@@H](Cc1ccccc1)C(N)=O` (Boc-WPDF-NH2) are within 1.5-fold of each other in IC50: 2.7 µM for the first, 2.1 µM for the second.

Going from `C[C@H](NC(=O)[C@H](Cc1c[nH]c2ccccc12)NC(=O)OC(C)(C)C)C(=O)N[C@@H](CC(=O)O)C(=O)N[C@@H](Cc1ccccc1)C(N)=O` (Boc-WADF-NH2) to `CCCC[C@H](NC(=O)[C@H](Cc1c[nH]c2ccccc12)NC(=O)OC(C)(C)C)C(=O)N[C@@H](CC(=O)O)C(=O)N[C@@H](Cc1ccccc1)C(N)=O` (Boc-W[Nle]DF-NH2), the IC50 falls from 10.3 µM to 4 µM (2.6-fold). The second is the more potent here.
